In PubChem BioAssay (NCI):
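Method: 48-hour compound exposure of cells in 96-well plates, five concentrations, linear interpolation of endpoints. TGI denotes the concentration required for complete inhibition of growth.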

Columns and labels:
Assay in all cases: growth of human tumour cells (NCI), 48 h
SK-OV-3 ovarian = system: SK-OV-3 ovarian
SN12C renal = system: SN12C renal
NCI-H23 lung = system: NCI-H23 lung
MDA-MB-231 breast = system: MDA-MB-231 breast
PC-3 prostate = system: PC-3 prostate
MALME-3M melanoma = system: MALME-3M melanoma
BT-549 breast = system: BT-549 breast
K-562 leukemia = system: K-562 leukemia
SW-620 colon = system: SW-620 colon
SK-MEL-2 melanoma = system: SK-MEL-2 melanoma
KM12 colon = system: KM12 colon
UACC-62 melanoma = system: UACC-62 melanoma
OVCAR-3 ovarian = system: OVCAR-3 ovarian
OVCAR-4 ovarian = system: OVCAR-4 ovarian
SNB-19 CNS = system: SNB-19 CNS
SNB-75 CNS = system: SNB-75 CNS
HT29 colon = system: HT29 colon
NCI-H226 lung = system: NCI-H226 lung
T-47D breast = system: T-47D breast
RXF 393 renal = system: RXF 393 renal
U251 CNS = system: U251 CNS
HCT-116 colon = system: HCT-116 colon
EKVX NSCLC = system: EKVX NSCLC
M14 melanoma = system: M14 melanoma
A498 renal = system: A498 renal
HOP-62 NSCLC = system: HOP-62 NSCLC
786-0 renal = system: 786-0 renal
SK-MEL-5 melanoma = system: SK-MEL-5 melanoma
CAKI-1 renal = system: CAKI-1 renal
SF-539 CNS = system: SF-539 CNS
OVCAR-5 ovarian = system: OVCAR-5 ovarian
TK-10 renal = system: TK-10 renal
ACHN renal = system: ACHN renal
HCC-2998 colon = system: HCC-2998 colon
DU-145 prostate = system: DU-145 prostate
UACC-257 melanoma = system: UACC-257 melanoma
A549 NSCLC = system: A549 NSCLC
OVCAR-8 ovarian = system: OVCAR-8 ovarian
HOP-92 NSCLC = system: HOP-92 NSCLC
HCT-15 colon = system: HCT-15 colon
UO-31 renal = system: UO-31 renal
MDA-MB-435 = system: MDA-MB-435
IGROV1 ovarian = system: IGROV1 ovarian
SK-MEL-28 melanoma = system: SK-MEL-28 melanoma
NCI-H522 lung = system: NCI-H522 lung
CCRF-CEM leukemia = system: CCRF-CEM leukemia
SF-295 CNS = system: SF-295 CNS

Cc1cc(C)c2c(=N)c3ccccc3n(CCCCCCn3c4ccccc4c(=N)c4c(C)cc(C)nc43)c2n1
TGI (SK-OV-3 ovarian): 2980 nM | TGI (SN12C renal): 2880 nM | TGI (NCI-H23 lung): 2440 nM | TGI (MDA-MB-231 breast): 1090 nM | TGI (PC-3 prostate): 2810 nM | TGI (MALME-3M melanoma): 2680 nM | TGI (BT-549 breast): 2910 nM | TGI (K-562 leukemia): > 100000 nM | TGI (SW-620 colon): 340 nM | TGI (SK-MEL-2 melanoma): 2970 nM | TGI (KM12 colon): 973 nM | TGI (UACC-62 melanoma): 3260 nM | TGI (OVCAR-3 ovarian): 3090 nM | TGI (OVCAR-4 ovarian): 3010 nM | TGI (SNB-19 CNS): 2110 nM | TGI (SNB-75 CNS): 1430 nM | TGI (HT29 colon): 1680 nM | TGI (NCI-H226 lung): 2850 nM | TGI (T-47D breast): 3650 nM | TGI (RXF 393 renal): 2540 nM | TGI (U251 CNS): 387 nM | TGI (HCT-116 colon): 353 nM | TGI (EKVX NSCLC): 3290 nM | TGI (M14 melanoma): 3070 nM | TGI (A498 renal): 3120 nM | TGI (HOP-62 NSCLC): 1440 nM | TGI (786-0 renal): 816 nM | TGI (SK-MEL-5 melanoma): 3390 nM | TGI (CAKI-1 renal): 2520 nM | TGI (SF-539 CNS): 3010 nM | TGI (OVCAR-5 ovarian): 3490 nM | TGI (TK-10 renal): 3190 nM | TGI (ACHN renal): 2910 nM | TGI (HCC-2998 colon): 323 nM | TGI (DU-145 prostate): 3130 nM | TGI (UACC-257 melanoma): 3060 nM | TGI (A549 NSCLC): 3030 nM | TGI (OVCAR-8 ovarian): 3140 nM | TGI (HOP-92 NSCLC): 2940 nM | TGI (HCT-15 colon): 343 nM | TGI (UO-31 renal): 2910 nM | TGI (MDA-MB-435): 3300 nM | TGI (IGROV1 ovarian): 2640 nM | TGI (SK-MEL-28 melanoma): 2640 nM | TGI (NCI-H522 lung): 2310 nM | TGI (CCRF-CEM leukemia): 565 nM | TGI (SF-295 CNS): 2850 nM
